Experiment: Recovery rate of zinc bacitracin in various feeds on storage at ambient temperature
Format: physicochemical
Conditions: initial 1,000 ppm = 100%
From the text: Stabilization of the active substance zinc bacitracin is achieved with the process according to the invention.

- Recovery rate of zinc bacitracin (ZBA) in % (meal feed 2.16 mineral supplement, 1.5 weeks): 94.6%
- Recovery rate of zinc bacitracin (ZBA) in % (meal feed 2.16 mineral supplement, 4 weeks): 91.2%
- Recovery rate of zinc bacitracin (ZBA) in % (meal feed 2.16 mineral supplement, 6 weeks): 68.5%
- Recovery rate of zinc bacitracin (ZBA) in % (meal feed 2.16 mineral supplement, 8 weeks): 73.7%
- Recovery rate of zinc bacitracin (ZBA) in % (meal feed 2.6 complete feed for fattening pigs, 1.5 weeks): 116.4%
- Recovery rate of zinc bacitracin (ZBA) in % (meal feed 2.6 complete feed for fattening pigs, 4 weeks): 107.6%
- Recovery rate of zinc bacitracin (ZBA) in % (meal feed 2.6 complete feed for fattening pigs, 6 weeks): 93.1%
- Recovery rate of zinc bacitracin (ZBA) in % (meal feed 2.6 complete feed for fattening pigs, 8 weeks): 83.3%
- Recovery rate of zinc bacitracin (ZBA) in % (meal feed 7.4 complete feed for fattening chicks, 1.5 weeks): 89.8%
- Recovery rate of zinc bacitracin (ZBA) in % (meal feed 7.4 complete feed for fattening chicks, 4 weeks): 82.9%
- Recovery rate of zinc bacitracin (ZBA) in % (meal feed 7.4 complete feed for fattening chicks, 6 weeks): 66.2%
- Recovery rate of zinc bacitracin (ZBA) in % (meal feed 7.4 complete feed for fattening chicks, 8 weeks): 51.9%
- Recovery rate of zinc bacitracin (ZBA) in % (meal feed 7.7 complete feed for laying hens, 1.5 weeks): 96.5%
- Recovery rate of zinc bacitracin (ZBA) in % (meal feed 7.7 complete feed for laying hens, 4 weeks): 98.8%
- Recovery rate of zinc bacitracin (ZBA) in % (meal feed 7.7 complete feed for laying hens, 6 weeks): 86.4%
- Recovery rate of zinc bacitracin (ZBA) in % (meal feed 7.7 complete feed for laying hens, 8 weeks): 80.4%
- Recovery rate of zinc bacitracin (ZBA) in % (pellet feed 2.6 complete feed for fattening pigs, 1.5 weeks): 90.5%
- Recovery rate of zinc bacitracin (ZBA) in % (pellet feed 2.6 complete feed for fattening pigs, 4 weeks): 75.7%
- Recovery rate of zinc bacitracin (ZBA) in % (pellet feed 2.6 complete feed for fattening pigs, 6 weeks): 48.8%
- Recovery rate of zinc bacitracin (ZBA) in % (pellet feed 2.6 complete feed for fattening pigs, 8 weeks): 40.8%
- Recovery rate of zinc bacitracin (ZBA) in % (pellet feed 7.4 complete feed for fattening chicks, 1.5 weeks): 67.5%
- Recovery rate of zinc bacitracin (ZBA) in % (pellet feed 7.4 complete feed for fattening chicks, 4 weeks): 40.2%
- Recovery rate of zinc bacitracin (ZBA) in % (pellet feed 7.4 complete feed for fattening chicks, 6 weeks): 24.9%
- Recovery rate of zinc bacitracin (ZBA) in % (pellet feed 7.4 complete feed for fattening chicks, 8 weeks): 21.4%
- Recovery rate of zinc bacitracin (ZBA) in % (pellet feed 7.7 complete feed for laying hens, 1.5 weeks): 81.5%
- Recovery rate of zinc bacitracin (ZBA) in % (pellet feed 7.7 complete feed for laying hens, 4 weeks): 65.8%
- Recovery rate of zinc bacitracin (ZBA) in % (pellet feed 7.7 complete feed for laying hens, 6 weeks): 51.1%
- Recovery rate of zinc bacitracin (ZBA) in % (pellet feed 7.7 complete feed for laying hens, 8 weeks): 42.4%
Substance: zinc bacitracin [Untreated control]

Reference: patent US5750135A, “Stabilized feed additive and process for the preparation thereof” (Boehringer Ingelheim Vetmedica GmbH, priority 1987, dated 1998)
